Assay results from US9145415B2, “Nitrogen-containing heterocyclic compound or salt thereof” (FUJIFILM Corporation, priority 2012, dated 2015).
Read-outs that look alike come from different tables or passages of the source.

Columns and labels:
MV4-11 cells = assay: Leukemia cell proliferation inhibition test (ATPlite), MV4-11; format: cell-based; settings: MV4-11, 72 hours culture, ATPlite, GI50 per method, read-out: MV4-11 cell proliferation inhibition effect
Outline: (§1)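 72 h proliferation, 37° C/5% CO2; 10,000 cells/well, RPMI/10% FBS; ATPlite luminescence (RLU); 0.1% DMSO taken as 0% inhibition; GI50 via sigmoid fit, n=2.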

Molm-13 cells = assay: Leukemia cell proliferation inhibition test (ATPlite), Molm-13; format: cell-based; settings: Molm-13, 72 hours culture, ATPlite, GI50 per method, read-out: MOLM13 cell proliferation inhibition effect
Outline: as §1

[1] = target: T1, human FLT3 protein (FLT3 (WT)) (Homo sapiens, UniProt P36888); assay: FLT3 inhibition test (FLT3 enzyme inhibition, time-resolved fluorescence of substrate peptide phosphorylation); format: biochemical; settings: GST-fused human FLT3 (564 to 993 aa), ATP 50 μM; read-out: FLT3 (WT) enzyme inhibition activity
T1 construct: human FLT3 protein (intracellular region, 564 to 993 aa); GST; purchased Carna Biosciences; host or cells: baculovirus expression system
T1 sequence (P36888 564-993): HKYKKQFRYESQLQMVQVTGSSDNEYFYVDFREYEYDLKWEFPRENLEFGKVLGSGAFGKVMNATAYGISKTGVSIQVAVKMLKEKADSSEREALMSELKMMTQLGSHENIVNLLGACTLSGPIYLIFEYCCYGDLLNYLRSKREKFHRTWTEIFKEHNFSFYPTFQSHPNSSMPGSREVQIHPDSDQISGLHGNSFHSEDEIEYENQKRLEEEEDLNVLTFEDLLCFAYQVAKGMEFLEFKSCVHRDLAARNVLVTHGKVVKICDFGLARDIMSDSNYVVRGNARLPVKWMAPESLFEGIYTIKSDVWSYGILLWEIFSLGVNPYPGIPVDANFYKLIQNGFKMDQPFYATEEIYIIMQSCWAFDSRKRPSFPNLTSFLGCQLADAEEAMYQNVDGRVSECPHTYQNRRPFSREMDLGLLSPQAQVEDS
Outline: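 Substrate peptide phosphorylation detected by time-resolved fluorescence after a 30 min kinase reaction at 25° C with 50 μM ATP (final). Beforehand, compound and FLT3 (WT, 1.2 μg) stood 15 min at 25° C in HEPES buffer pH 7.5 containing MgCl2, NaCl, BSA and DTT.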

Structure (SMILES)	IC50 (MV4-11 cells; Homo sapiens, MV4-11, 72 h) [µM]	IC50 (Molm-13 cells; Homo sapiens, MOLM-13, 72 h) [µM]	IC50 [1] [µM]	IC50 (MV4-11 cells) [µM]	IC50 (Molm-13 cells) [µM]
CNc1nc(Nc2ccc(F)cc2)ncc1C#CCCCNC(=O)[C@@H]1C[C@H](OC)CN1C(=O)/C=C/CN(C)C [Compound 7-82]	< 0.01	< 0.01	< 0.01	–	–
CNc1nc(Nc2ccc(F)cc2)ncc1C#CCCCNC(=O)[C@@H]1C[C@@H](OC)CN1C(=O)/C=C/CN(C)C [Compound 7-83, (2S,4R)-1-((E)-4-(Dimethylamino)-2-butenoyl)-N-(5-(2-((4-fluorophenyl)amino)-4-(methylamino)pyrimidin-5-yl)-4-pentyn-1-yl)-4-methoxypyrrolidine-2-carboxamide]	< 0.01	< 0.01	< 0.01	–	–
CNc1nc(Nc2ccc(F)cc2)ncc1C#CCCCNC(=O)[C@@H]1C[C@H](O)CN1C(=O)/C=C/CN(C)C [Compound 7-84]	< 0.01	< 0.01	< 0.01	–	–
CNc1nc(Nc2ccc(F)cc2)ncc1C#CCCCNC(=O)[C@@H]1C[C@@H](O)CN1C(=O)/C=C/CN(C)C [Compound 7-85]	< 0.01	< 0.01	< 0.01	–	–
CNc1nc(Nc2ccc(F)cc2)ncc1C#CCCCNC(=O)[C@@H]1CCN1C(=O)/C=C/CN(C)C [Compound 7-86, (S,E)-1-(4-(Dimethylamino)-2-butenoyl)-N-(5-(2-((4-fluorophenyl)amino)-4-(methylamino)pyrimidin-5-yl)-4-pentyn-1-yl)azetidine-2-carboxamide]	< 0.01	< 0.01	< 0.01	–	–
CNc1nc(Nc2ccc(C#N)cc2)ncc1C#CCCCNC(=O)[C@@H]1C[C@H](F)CN1C(=O)/C=C/CN(C)C [Compound 7-87, (2S,4S)—N-(5-(2-((4-Cyanophenyl)amino)-4-(methylamino)pyrimidin-5-yl)-4-pentyn-1-yl)-1-((E)-4-(dimethylamino)-2-butenoyl)-4-fluoropyrrolidine-2-carboxamide]	< 0.01	< 0.01	< 0.01	–	–
CNc1nc(Nc2ccc(C#N)cc2)ncc1C#CCCCNC(=O)CN(C)C(=O)/C=C/CN(C)C [Compound 7-88, (E)-N-(2-((5-(2-((4-Cyanophenyl)amino)-4-(methylamino)pyrimidin-5-yl)-4-pentyn-1-yl)amino)-2-oxoethyl)-4-(dimethylamino)-N-methyl-2-butenamide]	< 0.01	< 0.01	< 0.01	–	–
CNc1nc(Nc2ccc(F)cc2)ncc1C#CCCCNC(=O)CN(C)C(=O)/C=C/CN(C)C [Compound 7-89]	< 0.01	< 0.01	< 0.01	–	–
CCCNc1nc(Nc2ccc(C#N)cc2)ncc1C#CCNC(=O)CCNC(=O)/C=C/CN(C)C [Compound 7-90]	0.1 to 1	0.1 to 1	< 0.01	–	–
CCCNc1nc(Nc2ccc(C#N)cc2)ncc1C#CCNC(=O)CCCNC(=O)/C=C/CN(C)C [Compound 7-91]	0.1 to 1	0.1 to 1	< 0.01	–	–
CNc1nc(Nc2ccc(F)cc2)ncc1C#CCCCNC(=O)[C@@H]1C[C@H](C)CN1C(=O)/C=C/CN(C)C [Compound 7-92]	< 0.01	< 0.01	< 0.01	–	–
CNc1nc(Nc2ccc(F)cc2)ncc1C#CCCCNC(=O)[C@@H]1CC(F)(F)CN1C(=O)/C=C/CN(C)C [Compound 7-93]	< 0.01	< 0.01	< 0.01	–	–
CCCNc1nc(Nc2cccc(F)c2)ncc1C#CCCCNC(=O)[C@H]1CCCN1C(=O)/C=C/CN(C)C [Compound 7-94]	0.01 to 0.1	0.01 to 0.1	0.01 to 0.1	–	–
CCCNc1nc(Nc2ccc(C#N)cc2)ncc1/C=C\CNC(=O)CCNC(=O)/C=C/CN(C)C [Compound 7-95]	> 1	> 1	0.01 to 0.1	–	–
CCCNc1nc(Nc2ccc(C#N)cc2)ncc1/C=C\CNC(=O)CCCNC(=O)/C=C/CN(C)C [Compound 7-96]	0.1 to 1	> 1	0.01 to 0.1	–	–

Continued, values first:

IC50 (MV4-11 cells; Homo sapiens, MV4-11, 72 h) [µM]	IC50 (Molm-13 cells; Homo sapiens, MOLM-13, 72 h) [µM]	IC50 [1] [µM]	IC50 (MV4-11 cells) [µM]	IC50 (Molm-13 cells) [µM]	Structure (SMILES)
< 0.01	< 0.01	< 0.01	–	–	CCCNc1nc(Nc2cccc(F)c2)ncc1C#Cc1cccc(NC(=O)[C@H](C)N(C)C(=O)/C=C/CN(C)C)c1 [Compound 8-1, (S,E)-4-(dimethylamino)-N-(1-((3-((2-((3-fluorophenyl)amino)-4-(propylamino)pyrimidin-5-yl)ethynyl)phenyl)amino)-1-oxopropan-2-yl)-N-methyl-2-butenamide]
< 0.01	< 0.01	< 0.01	–	–	CCCNc1nc(Nc2ccc(C(N)=O)cc2)ncc1C#Cc1cccc(NC(=O)[C@H](C)N(C)C(=O)/C=C/CN(C)C)c1 [Compound 8-2, (S,E)-4-((5-((3-(2-(4-(Dimethylamino)-N-methyl-2-butenamido)propanamido)phenyl)ethynyl)-4-(propylamino)pyrimidin-2-yl)amino)benzamide]
< 0.01	0.01 to 0.1	< 0.01	–	–	C=CC(=O)NCC(=O)Nc1cccc(C#Cc2cnc(Nc3ccc(C(N)=O)cc3)nc2NCCC)c1 [Compound 8-3]
0.01 to 0.1	0.01 to 0.1	< 0.01	–	–	CCCNc1nc(Nc2ccc(C(N)=O)cc2)ncc1C#Cc1ccc(NC(=O)CNC(=O)/C=C/CN(C)C)cc1 [Compound 8-4]
0.01 to 0.1	0.01 to 0.1	< 0.01	–	–	CCCNc1nc(Nc2ccc(C(N)=O)cc2)ncc1C#Cc1cccc(NCCNC(=O)/C=C/CN(C)C)c1 [Compound 8-5]
< 0.01	< 0.01	< 0.01	–	–	CCCNc1nc(NCCc2ccncc2)ncc1C#Cc1cccc(NC(=O)[C@H](C)N(C)C(=O)/C=C/CN(C)C)c1 [Compound 8-6]
< 0.01	0.01 to 0.1	< 0.01	–	–	CCCNc1nc(Nc2cccc(F)c2)ncc1C#Cc1cc(NC(=O)[C@H](C)N(C)C(=O)/C=C/CN(C)C)ccc1F [Compound 8-7]
0.01 to 0.1	0.01 to 0.1	< 0.01	–	–	CCCNc1nc(Nc2ccc(C(N)=O)cc2)ncc1C#Cc1ccc2nc(CNC(=O)/C=C/CN(C)C)[nH]c2c1 [Compound 8-9]
< 0.01	0.01 to 0.1	< 0.01	–	–	CCCNc1nc(Nc2ccc(C(N)=O)cc2)ncc1C#CCCCNC(C)(C)CNC(=O)/C=C/CN(C)C [Compound 8-10]
< 0.01	< 0.01	< 0.01	–	–	CCCNc1nc(Nc2ccc(C#N)cc2)ncc1C#CCCCNC(C)(C)CN(C)C(=O)/C=C/CN(C)C [Compound 8-11]
0.01 to 0.1	0.01 to 0.1	< 0.01	–	–	CCCNc1nc(Nc2ccc(C(N)=O)cc2)ncc1C#CCCCNC1(CNC(=O)/C=C/CN(C)C)CCOCC1 [Compound 8-12]
0.01 to 0.1	0.01 to 0.1	< 0.01	–	–	CCCNc1nc(Nc2ccc(C(N)=O)cc2)ncc1C#CCCCNC(CCOC)(CCOC)CNC(=O)/C=C/CN(C)C [Compound 8-13]
–	–	< 0.01	< 0.01	0.01 to 0.1	CCCNc1nc(Nc2ccc(C(N)=O)cc2)ncc1C#Cc1cccc(NC(=O)[C@H](C)N(C)C(=O)/C=C/CN(C)C)c1 [Compound 8-14]
–	–	0.01 to 0.1	0.1 to 1	0.1 to 1	CCCNc1nc(Nc2cccc(F)c2)ncc1C#CCCCNC(=O)[C@@H]1CCCN1C(=O)/C=C/CN(C)C [Compound 8-15]
0.01 to 0.1	0.1 to 1	0.01 to 0.1	–	–	CCCNc1nc(Nc2ccc(C#N)cc2)ncc1C#CCCC(=O)NC(C)(C)CN(C)C(=O)/C=C/CN(C)C [Compound 8-16]
0.01 to 0.1	0.01 to 0.1	< 0.01	–	–	C[C@@H](C(=O)Nc1cccc(C#Cc2cnc(Nc3ccc(C#N)cc3)nc2NC2CC2)n1)N(C)C(=O)/C=C/CN(C)C [Compound 8-18]
0.01 to 0.1	0.01 to 0.1	< 0.01	–	–	CCCNc1nc(Nc2ccc(C#N)cc2)ncc1C#Cc1cccc(NC(=O)[C@H](C)N(C)C(=O)/C=C/CN(C)C)n1 [Compound 8-19]
0.01 to 0.1	0.1 to 1	0.01 to 0.1	–	–	CCCNc1nc(Nc2cccc(F)c2)ncc1C#Cc1cccc(NC(=O)[C@H](C)N(C)C(=O)/C=C/CN(C)C)n1 [Compound 8-20]
0.1 to 1	0.1 to 1	0.01 to 0.1	–	–	CCCNc1nc(Nc2cccc(F)c2)ncc1C#CCCC(=O)NCCN(C)C(=O)/C=C/CN(C)C [Compound 8-21]
0.01 to 0.1	0.01 to 0.1	< 0.01	–	–	CCCNc1nc(Nc2ccc(C#N)cc2)ncc1C#CCCC(=O)NCCN(C)C(=O)/C=C/CN(C)C [Compound 8-22]
